Patent US10787432B2, “N-[(pyridyloxy)propanyl]benzamides” (Boehringer Ingelheim International GmbH, priority 2016, dated 2020)

Test system: not listed separately
Test: Assay C: Metabolic stability in human liver microsomes (Human MST)
Type: in vitro ADME
Conditions: pooled human liver microsomes, pH 7.6; human liver microsomes 1 mg/mL, compound 1 μM, 37° C., NADPH; read-out: Human MST t1/2
Experimental: C. Assessment of Metabolic Stability in Human Liver Microsomes (Human MST)
The metabolic stability of the compounds according to the invention may be investigated as follows:
The metabolic degradation of the test compound is assayed at 37° C. with pooled human liver microsomes. The final incubation volume of 100 μL per time point contains TRIS buffer pH 7.6 at room temperature (0.1 M), MgCl2 (5 mM), microsomal protein (1 mg/mL) and the test compound at a final concentration of 1 μM. Following a short pre-incubation period at 37° C., the reactions are initiated by addition of beta-nicotinamide adenine dinucleotide phosphate, reduced form (NADPH, 1 mM), and terminated by transferring an aliquot into solvent after different time points. After centrifugation (10000 g, 5 min), an aliquot of the supernatant is assayed by LC-MS/MS for the amount of parent compound. The half-life (t1/2) is determined by the slope of the semi-logarithmic plot of the concentration-time profile.

Structure (SMILES)	half-life at 1 μM [min]
CCN(C(=O)c1ccc(Cl)cc1-n1nccn1)[C@@H](C)COc1ccc(C(F)(F)F)cn1 [Example 26]	15
CCN(C(=O)c1ccc(F)cc1-n1nccn1)[C@@H](C)COc1ccc(Cl)cn1 [Example 28]	39
CCN(C(=O)c1cc(F)ccc1-n1nccn1)[C@@H](C)COc1ccc(Cl)cn1 [Example 29]	55
CCN(C(=O)c1cc(F)c(F)cc1-n1nccn1)[C@@H](C)COc1ccc(Cl)cn1 [Example 30]	52
CCN(C(=O)c1cc(F)cc(F)c1-n1nccn1)[C@@H](C)COc1ccc(Cl)cn1 [Example 32]	46
CCN(C(=O)c1cc(OC)ccc1-n1nccn1)[C@@H](C)COc1ccc(Cl)cn1 [Example 33]	20
CCN(C(=O)c1cccc(F)c1-c1nnc(C)o1)[C@@H](C)COc1ccc(Cl)cn1 [Example 36]	72
CCN(C(=O)c1ccc(C)cc1-c1nnc(C)o1)[C@@H](C)COc1ccc(Cl)cn1 [Example 38]	11
CCN(C(=O)c1cccc(C)c1-c1nnc(C)o1)[C@@H](C)COc1ccc(Cl)cn1 [Example 39]	23
CCN(C(=O)c1ccc(Cl)cc1-n1nccn1)[C@@H](C)COc1ccc(Cl)cn1 [Example 45]	18
CCN(C(=O)c1ccccc1-n1nccn1)[C@@H](C)COc1ccc(Cl)cn1 [Example 46]	35
CCN(C(=O)c1ccccc1-n1nccn1)[C@@H](C)COc1ncc(C(F)(F)F)cc1F [Example 47]	21

Molecular target: T1, human Orexin 1 receptor (Homo sapiens, UniProt O43613)
T1 construct: stably expressing the full-length human Orexin 1 receptor; expressed in transfected cells; host or cells: CHO-K1 (CHO-K1/hOX1), co-expressing aequorin
T1 sequence (O43613 1-425): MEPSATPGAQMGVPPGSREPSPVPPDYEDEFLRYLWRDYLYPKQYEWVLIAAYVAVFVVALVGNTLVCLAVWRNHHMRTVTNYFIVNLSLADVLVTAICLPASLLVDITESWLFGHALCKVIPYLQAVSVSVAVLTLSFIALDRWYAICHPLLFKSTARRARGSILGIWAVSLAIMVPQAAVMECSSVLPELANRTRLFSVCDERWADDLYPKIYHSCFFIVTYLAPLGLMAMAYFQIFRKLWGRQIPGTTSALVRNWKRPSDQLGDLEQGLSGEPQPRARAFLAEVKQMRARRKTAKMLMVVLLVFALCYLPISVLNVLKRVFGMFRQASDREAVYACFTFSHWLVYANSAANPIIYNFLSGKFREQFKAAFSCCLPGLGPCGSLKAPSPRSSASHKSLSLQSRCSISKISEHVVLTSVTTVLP
Test: Assay A: In vitro testing of OX1R potency: OX1R IP1 (HTRF, CHO-K1/hOX1 cells, Orexin A as agonist)
Type: cell-based
Conditions: OX1R Kb at 0.5 nM Orexin A

Structure (SMILES)	OX2R Kb/OX1R Kb
CCN(C(=O)c1cc(F)ccc1-n1nccn1)[C@@H](C)COc1ccc(Cl)cn1 [Example 29]	71
CCN(C(=O)c1cc(F)c(F)cc1-n1nccn1)[C@@H](C)COc1ccc(Cl)cn1 [Example 30]	70
CCN(C(=O)c1cc(F)cc(F)c1-n1nccn1)[C@@H](C)COc1ccc(Cl)cn1 [Example 32]	106
CCN(C(=O)c1cccc(F)c1-c1nnc(C)o1)[C@@H](C)COc1ccc(Cl)cn1 [Example 36]	139
CCN(C(=O)c1ccc(C)cc1-c1nnc(C)o1)[C@@H](C)COc1ccc(Cl)cn1 [Example 38]	313
CCN(C(=O)c1cccc(C)c1-c1nnc(C)o1)[C@@H](C)COc1ccc(Cl)cn1 [Example 39]	93
CCN(C(=O)c1ccccc1-n1nccn1)[C@@H](C)COc1ncc(C(F)(F)F)cc1F [Example 47]	130

Same assay, conditions: OX1R Kb at 0.5 nM and 50 nM Orexin A

Structure (SMILES)	OX2R Kb/OX1R Kb
CCN(C(=O)c1ccc(F)cc1-n1nccn1)[C@@H](C)COc1ccc(Cl)cn1 [Example 28]	51

Same assay, conditions: OX1R Kb at 50 nM Orexin A

Structure (SMILES)	OX2R Kb/OX1R Kb
CCN(C(=O)c1ccc(Cl)cc1-n1nccn1)[C@@H](C)COc1ccc(C(F)(F)F)cn1 [Example 26]	400
CCN(C(=O)c1cc(F)ccc1-n1nccn1)[C@@H](C)COc1ccc(Cl)cn1 [Example 29]	81
CCN(C(=O)c1cc(F)cc(F)c1-n1nccn1)[C@@H](C)COc1ccc(Cl)cn1 [Example 32]	143
CCN(C(=O)c1cc(OC)ccc1-n1nccn1)[C@@H](C)COc1ccc(Cl)cn1 [Example 33]	236
CCN(C(=O)c1cccc(C)c1-c1nnc(C)o1)[C@@H](C)COc1ccc(Cl)cn1 [Example 39]	152
CCN(C(=O)c1ccc(Cl)cc1-n1nccn1)[C@@H](C)COc1ccc(Cl)cn1 [Example 45]	59
CCN(C(=O)c1ccccc1-n1nccn1)[C@@H](C)COc1ccc(Cl)cn1 [Example 46]	56
CCN(C(=O)c1ccccc1-n1nccn1)[C@@H](C)COc1ncc(C(F)(F)F)cc1F [Example 47]	272

Same assay, conditions: Orexin A 0.5 nM and 50 nM; read-out: OX1R Kb (Orexin A concentration used)

Structure (SMILES)	Kb [nM]
CCN(C(=O)c1ccc(F)cc1-n1nccn1)[C@@H](C)COc1ccc(Cl)cn1 [Example 28]	1.7

Same assay, conditions: Orexin A 0.5 nM; read-out: OX1R Kb (Orexin A concentration used)

Structure (SMILES)	Kb [nM]
CCN(C(=O)c1cc(F)ccc1-n1nccn1)[C@@H](C)COc1ccc(Cl)cn1 [Example 29]	1
CCN(C(=O)c1cc(F)c(F)cc1-n1nccn1)[C@@H](C)COc1ccc(Cl)cn1 [Example 30]	2.3
CCN(C(=O)c1cc(F)cc(F)c1-n1nccn1)[C@@H](C)COc1ccc(Cl)cn1 [Example 32]	1.1
CCN(C(=O)c1cccc(F)c1-c1nnc(C)o1)[C@@H](C)COc1ccc(Cl)cn1 [Example 36]	3.9
CCN(C(=O)c1ccc(C)cc1-c1nnc(C)o1)[C@@H](C)COc1ccc(Cl)cn1 [Example 38]	2.8
CCN(C(=O)c1cccc(C)c1-c1nnc(C)o1)[C@@H](C)COc1ccc(Cl)cn1 [Example 39]	0.88
CCN(C(=O)c1ccccc1-n1nccn1)[C@@H](C)COc1ncc(C(F)(F)F)cc1F [Example 47]	0.67

Same assay, conditions: Orexin A 50 nM; read-out: OX1R Kb (Orexin A concentration used)

Structure (SMILES)	Kb [nM]
CCN(C(=O)c1ccc(Cl)cc1-n1nccn1)[C@@H](C)COc1ccc(C(F)(F)F)cn1 [Example 26]	0.055
CCN(C(=O)c1cc(F)ccc1-n1nccn1)[C@@H](C)COc1ccc(Cl)cn1 [Example 29]	0.88
CCN(C(=O)c1cc(F)cc(F)c1-n1nccn1)[C@@H](C)COc1ccc(Cl)cn1 [Example 32]	0.82
CCN(C(=O)c1cc(OC)ccc1-n1nccn1)[C@@H](C)COc1ccc(Cl)cn1 [Example 33]	0.14
CCN(C(=O)c1cccc(C)c1-c1nnc(C)o1)[C@@H](C)COc1ccc(Cl)cn1 [Example 39]	0.54
CCN(C(=O)c1ccc(Cl)cc1-n1nccn1)[C@@H](C)COc1ccc(Cl)cn1 [Example 45]	0.354
CCN(C(=O)c1ccccc1-n1nccn1)[C@@H](C)COc1ccc(Cl)cn1 [Example 46]	0.66
CCN(C(=O)c1ccccc1-n1nccn1)[C@@H](C)COc1ncc(C(F)(F)F)cc1F [Example 47]	0.32

Molecular target: T2, human orexin 2 receptor (Homo sapiens, UniProt O43614)
T2 construct: stably expressing the full-length human orexin 2 receptor; expressed in transfected cells; host or cells: CHO-K1 (CHO-K1/hOX2), co-expressing aequorin
T2 sequence (O43614 1-444): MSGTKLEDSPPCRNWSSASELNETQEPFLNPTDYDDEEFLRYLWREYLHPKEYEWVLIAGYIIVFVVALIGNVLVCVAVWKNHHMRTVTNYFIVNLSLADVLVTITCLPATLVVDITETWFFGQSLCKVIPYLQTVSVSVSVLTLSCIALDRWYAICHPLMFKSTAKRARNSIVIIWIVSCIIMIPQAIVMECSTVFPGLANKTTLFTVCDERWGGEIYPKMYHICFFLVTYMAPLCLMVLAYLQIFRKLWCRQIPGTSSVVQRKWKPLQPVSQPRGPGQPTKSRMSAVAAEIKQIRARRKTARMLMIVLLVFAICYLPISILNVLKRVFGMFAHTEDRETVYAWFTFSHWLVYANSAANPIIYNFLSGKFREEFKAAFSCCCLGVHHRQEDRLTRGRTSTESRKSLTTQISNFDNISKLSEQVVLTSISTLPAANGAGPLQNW
Test: Assay B: In vitro testing of OX2R potency: OX2R IP1 (HTRF, CHO-K1/hOX2 cells, Orexin A as agonist)
Type: cell-based
Conditions: Orexin A 0.5 nM
Description: Activation of the orexin receptors expressed in cell lines results in an increase in intracellular IP3 concentration. IP1, a downstream metabolite of IP3, accumulates in cells following receptor activation and is stable in the presence of LiCl. Using Homogeneous Time-Resolved Fluorescence technology with Lumi4-Tb cryptate (commercially available from Cisbio Bioassay.) and a suitable fluorescence plate reader. […] Chem. Genomics 2009, 3, 22-32. This technique is used to characterize pharmacological modification of the orexin receptors.
B. In Vitro Testing of OX2R Potency: OX2R IP1
IP1 measurements are performed in CHO-K1 cells stably expressing the full-length human orexin 2 receptor and the aequorin photoprotein. Cells are cultivated in Ham's nutrient mixture F12 medium with 10% fetal calf serum, in a 37° C., 95% humidity and 5% CO2 incubator. The CHO-K1/hOX2 cell mass is expanded to larger cell numbers. The cells are obtained as frozen cells in cryo-vials and stored until use at −150° C. The viability of the cells after thawing is >90%. In preparation for the assay, 24 hours before the assay, the cells are thawed at 37° C. and immediately diluted with cell culture medium. After centrifugation, the cell pellet is resuspended in medium and then distributed into the assay plates with a density of 5000 cells/25 μL per well. The plates are incubated for one hour at room temperature to reduce edge effects before they are incubated for 24 hours at 37° C./5% CO2. Compounds are prepared by a 8-point serial dilution in DMSO and a final dilution step into assay buffer (HBSS with 20 mM HEPES, 0.1% BSA and 50 mM LiCl, pH 7.4) to ensure a final DMSO concentration of 1% in the assay.
On the day of the assay, cells in the plate are washed twice with 60 μL assay buffer (20 μL buffer remained in the wells after washing), followed by adding 5 μL per well of compounds diluted in assay buffer. After 15 minutes of incubation at room temperature 5 μL per well of Orexin A peptide (final concentration: 0.5 nM) dissolved in assay buffer is added to the assay plate. The assay plate is incubated for 60 minutes at 37° C. Then 5 μL per well of Anti-IP1-Cryptate Tb solution and 5 μL per well of IP1-d2 dilution are added to all well of the plate and the plate is incubated for a further 60 minutes light protected at room temperature. The emission at 615 nm and 665 nm (Excitation wavelength: 320 nm) are measured using an EnVision reader (PerkinElmer). The ratio between the emission at 665 nm and 615 is calculated by the reader.
8-point four parametric non-linear curve fitting and determination of IC50 values and Hill slopes is performed using a regular analysis software e.g. AssayExplorer (Accelrys). In order to establish an agonist concentration independent parameter, Kb values are calculated using the following equation: IC50/((2+(A/EC50)n)^1/n−1) (with A=concentration agonist, EC50=EC50 agonist, n=Hill slope agonist) (see P. Leff, I. G. Dougall, Trends Pharmacol. Sci. 1993, 14(4), 110-112).
Kb values from Assay A (OX1R) and Assay B (OX2R) can then provide a selectivity ratio which is independent of the agonist (Orexin A) concentration.

Structure (SMILES)	Kb [nM]
CCN(C(=O)c1ccc(Cl)cc1-n1nccn1)[C@@H](C)COc1ccc(C(F)(F)F)cn1 [Example 26]	22
CCN(C(=O)c1ccc(F)cc1-n1nccn1)[C@@H](C)COc1ccc(Cl)cn1 [Example 28]	86
CCN(C(=O)c1cc(F)ccc1-n1nccn1)[C@@H](C)COc1ccc(Cl)cn1 [Example 29]	71
CCN(C(=O)c1cc(F)c(F)cc1-n1nccn1)[C@@H](C)COc1ccc(Cl)cn1 [Example 30]	160
CCN(C(=O)c1cc(F)cc(F)c1-n1nccn1)[C@@H](C)COc1ccc(Cl)cn1 [Example 32]	117
CCN(C(=O)c1cc(OC)ccc1-n1nccn1)[C@@H](C)COc1ccc(Cl)cn1 [Example 33]	33
CCN(C(=O)c1cccc(F)c1-c1nnc(C)o1)[C@@H](C)COc1ccc(Cl)cn1 [Example 36]	542
CCN(C(=O)c1ccc(C)cc1-c1nnc(C)o1)[C@@H](C)COc1ccc(Cl)cn1 [Example 38]	877
CCN(C(=O)c1cccc(C)c1-c1nnc(C)o1)[C@@H](C)COc1ccc(Cl)cn1 [Example 39]	82
CCN(C(=O)c1ccc(Cl)cc1-n1nccn1)[C@@H](C)COc1ccc(Cl)cn1 [Example 45]	21
CCN(C(=O)c1ccccc1-n1nccn1)[C@@H](C)COc1ccc(Cl)cn1 [Example 46]	37
CCN(C(=O)c1ccccc1-n1nccn1)[C@@H](C)COc1ncc(C(F)(F)F)cc1F [Example 47]	87
